Source: PMC9221290, “Alkaloids of Dicranostigma franchetianum (Papaveraceae) and Berberine Derivatives as a New Class of Antimycobacterial Agents” (Biomolecules, 2022)

Tested on: HepG2 cells
Test: not given
Details: not given

Row | SMILES | SI (selectivity index)
1 | COc1ccc2cc3[n+](cc2c1OCc1cccc(Br)c1)CCc1cc2c(cc1-3)OCO2 [16f, 9-O-(3-brombenzyl)berberine chloride] | 2.34

Tested on: not listed separately
Test: in vitro
Details: human, % of cell viability compared to control, 1. measurement, HepG2, 1 µM

Row | SMILES | viability at 1 µM
2 | COc1ccc2cc3[n+](cc2c1OCc1cccc(Br)c1)CCc1cc2c(cc1-3)OCO2 [16f, 9-O-(3-brombenzyl)berberine chloride] | 95.5%

Same assay, conditions: human, % of cell viability compared to control, 1. measurement, HepG2, 5 µM

Row | SMILES | viability at 5 µM
3 | COc1ccc2cc3[n+](cc2c1OCc1cccc(Br)c1)CCc1cc2c(cc1-3)OCO2 [16f, 9-O-(3-brombenzyl)berberine chloride] | 69.4%

Same assay, conditions: human, % of cell viability compared to control, 1. measurement, HepG2, 10 µM

Row | SMILES | viability at 10 µM
4 | COc1ccc2cc3[n+](cc2c1OCc1cccc(Br)c1)CCc1cc2c(cc1-3)OCO2 [16f, 9-O-(3-brombenzyl)berberine chloride] | 54.8%

Same assay, conditions: human, % of cell viability compared to control, 1. measurement, HepG2, 25 µM

Row | SMILES | viability at 25 µM
5 | COc1ccc2cc3[n+](cc2c1OCc1cccc(Br)c1)CCc1cc2c(cc1-3)OCO2 [16f, 9-O-(3-brombenzyl)berberine chloride] | 48.3%

Same assay, conditions: human, % of cell viability compared to control, 1. measurement, HepG2, 50 µM

Row | SMILES | viability at 50 µM
6 | COc1ccc2cc3[n+](cc2c1OCc1cccc(Br)c1)CCc1cc2c(cc1-3)OCO2 [16f, 9-O-(3-brombenzyl)berberine chloride] | 39.3%

Same assay, conditions: human, % of cell viability compared to control, 1. measurement, HepG2, 75 µM

Row | SMILES | viability at 75 µM
7 | COc1ccc2cc3[n+](cc2c1OCc1cccc(Br)c1)CCc1cc2c(cc1-3)OCO2 [16f, 9-O-(3-brombenzyl)berberine chloride] | 28%

Same assay, conditions: human, % of cell viability compared to control, 1. measurement, HepG2, 100 µM

Row | SMILES | viability at 100 µM
8 | COc1ccc2cc3[n+](cc2c1OCc1cccc(Br)c1)CCc1cc2c(cc1-3)OCO2 [16f, 9-O-(3-brombenzyl)berberine chloride] | 12.3%

Same assay, conditions: human, % of cell viability compared to control, 2. measurement, HepG2, 1 µM

Row | SMILES | viability at 1 µM
9 | COc1ccc2cc3[n+](cc2c1OCc1cccc(Br)c1)CCc1cc2c(cc1-3)OCO2 [16f, 9-O-(3-brombenzyl)berberine chloride] | 104%

Same assay, conditions: human, % of cell viability compared to control, 2. measurement, HepG2, 5 µM

Row | SMILES | viability at 5 µM
10 | COc1ccc2cc3[n+](cc2c1OCc1cccc(Br)c1)CCc1cc2c(cc1-3)OCO2 [16f, 9-O-(3-brombenzyl)berberine chloride] | 76.8%

Same assay, conditions: human, % of cell viability compared to control, 2. measurement, HepG2, 10 µM

Row | SMILES | viability at 10 µM
11 | COc1ccc2cc3[n+](cc2c1OCc1cccc(Br)c1)CCc1cc2c(cc1-3)OCO2 [16f, 9-O-(3-brombenzyl)berberine chloride] | 56.1%

Same assay, conditions: human, % of cell viability compared to control, 2. measurement, HepG2, 25 µM

Row | SMILES | viability at 25 µM
12 | COc1ccc2cc3[n+](cc2c1OCc1cccc(Br)c1)CCc1cc2c(cc1-3)OCO2 [16f, 9-O-(3-brombenzyl)berberine chloride] | 52.7%

Same assay, conditions: human, % of cell viability compared to control, 2. measurement, HepG2, 50 µM

Row | SMILES | viability at 50 µM
13 | COc1ccc2cc3[n+](cc2c1OCc1cccc(Br)c1)CCc1cc2c(cc1-3)OCO2 [16f, 9-O-(3-brombenzyl)berberine chloride] | 32.8%

Same assay, conditions: human, % of cell viability compared to control, 2. measurement, HepG2, 75 µM

Row | SMILES | viability at 75 µM
14 | COc1ccc2cc3[n+](cc2c1OCc1cccc(Br)c1)CCc1cc2c(cc1-3)OCO2 [16f, 9-O-(3-brombenzyl)berberine chloride] | 2.26%

Same assay, conditions: human, % of cell viability compared to control, 2. measurement, HepG2, 100 µM

Row | SMILES | viability at 100 µM
15 | COc1ccc2cc3[n+](cc2c1OCc1cccc(Br)c1)CCc1cc2c(cc1-3)OCO2 [16f, 9-O-(3-brombenzyl)berberine chloride] | 0.77%

Same assay, conditions: human, % of cell viability compared to control, 3. measurement, HepG2, 1 µM

Row | SMILES | viability at 1 µM
16 | COc1ccc2cc3[n+](cc2c1OCc1cccc(Br)c1)CCc1cc2c(cc1-3)OCO2 [16f, 9-O-(3-brombenzyl)berberine chloride] | 90.5%

Same assay, conditions: human, % of cell viability compared to control, 3. measurement, HepG2, 5 µM

Row | SMILES | viability at 5 µM
17 | COc1ccc2cc3[n+](cc2c1OCc1cccc(Br)c1)CCc1cc2c(cc1-3)OCO2 [16f, 9-O-(3-brombenzyl)berberine chloride] | 62.6%

Same assay, conditions: human, % of cell viability compared to control, 3. measurement, HepG2, 10 µM

Row | SMILES | viability at 10 µM
18 | COc1ccc2cc3[n+](cc2c1OCc1cccc(Br)c1)CCc1cc2c(cc1-3)OCO2 [16f, 9-O-(3-brombenzyl)berberine chloride] | 49.4%

Same assay, conditions: human, % of cell viability compared to control, 3. measurement, HepG2, 25 µM

Row | SMILES | viability at 25 µM
19 | COc1ccc2cc3[n+](cc2c1OCc1cccc(Br)c1)CCc1cc2c(cc1-3)OCO2 [16f, 9-O-(3-brombenzyl)berberine chloride] | 43.7%

Same assay, conditions: human, % of cell viability compared to control, 3. measurement, HepG2, 50 µM

Row | SMILES | viability at 50 µM
20 | COc1ccc2cc3[n+](cc2c1OCc1cccc(Br)c1)CCc1cc2c(cc1-3)OCO2 [16f, 9-O-(3-brombenzyl)berberine chloride] | 23.7%

Same assay, conditions: human, % of cell viability compared to control, 3. measurement, HepG2, 75 µM

Row | SMILES | viability at 75 µM
21 | COc1ccc2cc3[n+](cc2c1OCc1cccc(Br)c1)CCc1cc2c(cc1-3)OCO2 [16f, 9-O-(3-brombenzyl)berberine chloride] | 2.27%

Same assay, conditions: human, % of cell viability compared to control, 3. measurement, HepG2, 100 µM

Row | SMILES | viability at 100 µM
22 | COc1ccc2cc3[n+](cc2c1OCc1cccc(Br)c1)CCc1cc2c(cc1-3)OCO2 [16f, 9-O-(3-brombenzyl)berberine chloride] | 1.1%

Tested on: Mycobacterium kansasii DSM 44162 (ATCC 12478)
Test: Antimycobacterial microdilution broth assay (resazurin), M. kansasii
Format: cell-based
Details: Mycobacterium kansasii, 96 h, read-out: MIC M. kansasii, microdilution broth, resazurin, 96 h

Row | SMILES | MIC
23 | COc1ccc2cc3[n+](cc2c1OCc1cccc(Br)c1)CCc1cc2c(cc1-3)OCO2 [16f, 9-O-(3-brombenzyl)berberine chloride] | 3.12 µg/mL

Tested on: Mtb H37Ra ITM-M006710 (ATCC 9431)
Test: Antimycobacterial microdilution broth assay (resazurin), Mtb H37Ra
Format: cell-based, Mycobacterium tuberculosis
Details: Mycobacterium tuberculosis, 120 h, microdilution broth, resazurin, 120 h; read-out: MIC Mtb H37Ra

Row | SMILES | MIC
24 | COc1ccc2cc3[n+](cc2c1OCc1cccc(Br)c1)CCc1cc2c(cc1-3)OCO2 [16f, 9-O-(3-brombenzyl)berberine chloride] | 3.12 µg/mL

Same assay, conditions: Mycobacterium tuberculosis, calculated from MIC (µg/mL) and MW; read-out: MIC Mtb H37Ra

Row | SMILES | MIC
25 | COc1ccc2cc3[n+](cc2c1OCc1cccc(Br)c1)CCc1cc2c(cc1-3)OCO2 [16f, 9-O-(3-brombenzyl)berberine chloride] | 5.93 µM

Tested on: Mycolicibacterium aurum DSM 43999 (ATCC 23366)
Test: Antimycobacterial microdilution broth assay (resazurin), M. aurum
Format: cell-based
Details: Mycolicibacterium aurum, 72 h, read-out: MIC M. aurum, microdilution broth, resazurin, 72 h

Row | SMILES | MIC
26 | COc1ccc2cc3[n+](cc2c1OCc1cccc(Br)c1)CCc1cc2c(cc1-3)OCO2 [16f, 9-O-(3-brombenzyl)berberine chloride] | 1.56 µg/mL

Tested on: Mycobacterium avium DSM 44156 (ATCC 25291)
Test: Antimycobacterial microdilution broth assay (resazurin), M. avium
Format: cell-based
Details: Mycobacterium avium, 96 h, read-out: MIC M. avium, microdilution broth, resazurin, 96 h

Row | SMILES | MIC
27 | COc1ccc2cc3[n+](cc2c1OCc1cccc(Br)c1)CCc1cc2c(cc1-3)OCO2 [16f, 9-O-(3-brombenzyl)berberine chloride] | 3.12 µg/mL

Tested on: Mycolicibacterium smegmatis DSM 43465 (ATCC 607)
Test: Antimycobacterial microdilution broth assay (resazurin), M. smegmatis
Format: cell-based
Details: Mycolicibacterium smegmatis, 48 h, read-out: MIC M. smegmatis, microdilution broth, resazurin, 48 h

Row | SMILES | MIC
28 | COc1ccc2cc3[n+](cc2c1OCc1cccc(Br)c1)CCc1cc2c(cc1-3)OCO2 [16f, 9-O-(3-brombenzyl)berberine chloride] | 0.78 µg/mL

Tested on: HepG2 cells
Test: cells
Details: Homo sapiens, HepG2, 24 h, read-out: HepG2 IC50, 1. measurement, MTT, 24 h, single measurement 1

Row | SMILES | IC50
29 | COc1ccc2cc3[n+](cc2c1OCc1cccc(Br)c1)CCc1cc2c(cc1-3)OCO2 [16f, 9-O-(3-brombenzyl)berberine chloride] | 14.1 µM

Same assay, conditions: Homo sapiens, HepG2, 24 h, read-out: HepG2 IC50, 2. measurement, MTT, 24 h, single measurement 2

Row | SMILES | IC50
30 | COc1ccc2cc3[n+](cc2c1OCc1cccc(Br)c1)CCc1cc2c(cc1-3)OCO2 [16f, 9-O-(3-brombenzyl)berberine chloride] | 17 µM

Same assay, conditions: Homo sapiens, HepG2, 24 h, read-out: HepG2 IC50, 3. measurement, MTT, 24 h, single measurement 3

Row | SMILES | IC50
31 | COc1ccc2cc3[n+](cc2c1OCc1cccc(Br)c1)CCc1cc2c(cc1-3)OCO2 [16f, 9-O-(3-brombenzyl)berberine chloride] | 10.5 µM

Same assay, conditions: Homo sapiens, HepG2, 24 h, read-out: HepG2 IC50, MTT, 24 h incubation

Row | SMILES | IC50
32 | COc1ccc2cc3[n+](cc2c1OCc1cccc(Br)c1)CCc1cc2c(cc1-3)OCO2 [16f, 9-O-(3-brombenzyl)berberine chloride] | 13.9 ± 3.25 µM
